Test results published in PubChem BioAssay (NCI).
“And” between values parts separate entries of the source, which are not always exact repeats. Equal values may be shown once.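 Protocol summary: plate cells (96-well), add compound at 5 concentrations, incubate 48 h, interpolate endpoints linearly. Abbreviation: GI50, concentration required for 50% inhibition of growth. TGI marks complete inhibition of growth.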

Legend:
Assay in all cases: growth of human tumour cells (NCI), 48 h
KM12 colon = system: KM12 colon
MALME-3M melanoma = system: MALME-3M melanoma
MCF7 breast = system: MCF7 breast
OVCAR-3 ovarian = system: OVCAR-3 ovarian
OVCAR-4 ovarian = system: OVCAR-4 ovarian
RPMI-8226 leukemia = system: RPMI-8226 leukemia
SF-268 CNS = system: SF-268 CNS
SK-MEL-28 melanoma = system: SK-MEL-28 melanoma
SK-OV-3 ovarian = system: SK-OV-3 ovarian
TK-10 renal = system: TK-10 renal

SMILES	GI50 (KM12 colon) [µM]	TGI (KM12 colon) [µM]	GI50 (MALME-3M melanoma) [µM]	TGI (MALME-3M melanoma) [µM]	GI50 (MCF7 breast) [µM]	TGI (MCF7 breast) [µM]	GI50 (OVCAR-3 ovarian) [µM]	TGI (OVCAR-3 ovarian) [µM]	GI50 (OVCAR-4 ovarian)	TGI (OVCAR-4 ovarian) [µM]	GI50 (RPMI-8226 leukemia) [µM]	TGI (RPMI-8226 leukemia) [µM]	GI50 (SF-268 CNS) [µM]	TGI (SF-268 CNS) [µM]	GI50 (SK-MEL-28 melanoma) [µM]	TGI (SK-MEL-28 melanoma) [µM]	GI50 (SK-OV-3 ovarian) [µM]	TGI (SK-OV-3 ovarian) [µM]	GI50 (TK-10 renal) [µM]	TGI (TK-10 renal) [µM]
O=C1NC(=O)C(c2c[nH]c3ccccc23)=C1c1ccccc1	> 25	> 25	> 25	> 25	> 25	> 25	> 25	> 25	> 25 µM	> 25	> 25	> 25	> 25	> 25	> 25	> 25	> 25	> 25	> 25	> 25
O=c1[nH]c(SCc2ccccc2[N+](=O)[O-])nc2nc[nH]c12	–	> 100	–	> 100	–	> 100	–	> 100	30.3 µM and > 100 µM	> 100	–	> 100	–	> 100	–	> 100	–	> 100	–	> 100
O=C1/C(=C/c2ccccc2[N+](=O)[O-])COc2ccc(O)c(O)c21	1.55	3.72	0.866	3	0.409	3.02	0.295	0.976	0.857 µM	2.29	0.421	> 41.3	1.18	4.58	1.33	2.97	3.91	14.3	1.22	3.32
CC1(C)OC(=O)C(=Cc2ccc([N+](=O)[O-])s2)C(=O)O1	–	29	–	34.2	–	68.4	–	23.2	–	–	–	37.1	–	29.5	–	34.6	–	65.3	–	31.5
C#Cc1ccc(-n2c(/C=C/c3ccc4ccccc4c3)nc3ncccc3c2=O)cc1	2.95	> 100	4.97	> 100	2.43	> 100	–	–	1.95 µM	> 100	0.451	> 100	2.6	> 100	4.33	> 100	7.55	> 100	4.04	> 100
CC(=O)C(C=O)C(C)=O.CC(=O)CC(C)=O.CC(=O)CC(C)=O.[Ru]	27.2	> 100	24.6	96.9	35.4	> 100	2.15	26.3	19.5 µM	> 100	–	–	34.8	> 100	48.8	> 100	76.8	> 100	38.9	> 100
CN1CCN(c2ccc(Nc3ncc4cc5n(c4n3)C3(CCCCC3)CNC5=O)nc2)CC1	1.32	21.9	0.866	15.4	0.109	14.6	3.16	13.1	2.86 µM	15.4	0.0624	4.04	1.46	4.94	3.01	26	11.4	68.2	–	–
COC(=O)C1(C)CCCC2(C)c3cc(OC)ccc3C(=O)C(Br)C12 (stereo not drawn)	–	> 10	–	9.71	–	> 10	–	> 10	–	–	–	6.53	–	> 10	–	> 10	–	> 10	–	> 10
